Measured values as given in patent US9944646B2, “Bicyclic azaheterocyclobenzylamines as PI3K inhibitors” (Incyte Corporation, priority 2012, dated 2018).
Structures can show the parent of a compound that is named as a salt.

Target: PI3Kδ (Homo sapiens (Human), UniProt O00329)
Assay: PI3K Enzyme Assay (Example A2), [γ-33P]ATP filter plate
Type: biochemical
How it was run: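 Recombinant PI3Kδ at 2.9 nM with 50 µM PIP2 in MOPS pH 6.7, MgCl2, DTT, CHAPS, 0.5% DMSO; started with 1000 μM ATP including [γ-33P]ATP, 180 min at room temperature. Phosphorylated product captured on PVDF filter plates and scintillation-counted; IC50 from percent-control activity vs log concentration.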

PI3Kδ, sequence (O00329 whole entry): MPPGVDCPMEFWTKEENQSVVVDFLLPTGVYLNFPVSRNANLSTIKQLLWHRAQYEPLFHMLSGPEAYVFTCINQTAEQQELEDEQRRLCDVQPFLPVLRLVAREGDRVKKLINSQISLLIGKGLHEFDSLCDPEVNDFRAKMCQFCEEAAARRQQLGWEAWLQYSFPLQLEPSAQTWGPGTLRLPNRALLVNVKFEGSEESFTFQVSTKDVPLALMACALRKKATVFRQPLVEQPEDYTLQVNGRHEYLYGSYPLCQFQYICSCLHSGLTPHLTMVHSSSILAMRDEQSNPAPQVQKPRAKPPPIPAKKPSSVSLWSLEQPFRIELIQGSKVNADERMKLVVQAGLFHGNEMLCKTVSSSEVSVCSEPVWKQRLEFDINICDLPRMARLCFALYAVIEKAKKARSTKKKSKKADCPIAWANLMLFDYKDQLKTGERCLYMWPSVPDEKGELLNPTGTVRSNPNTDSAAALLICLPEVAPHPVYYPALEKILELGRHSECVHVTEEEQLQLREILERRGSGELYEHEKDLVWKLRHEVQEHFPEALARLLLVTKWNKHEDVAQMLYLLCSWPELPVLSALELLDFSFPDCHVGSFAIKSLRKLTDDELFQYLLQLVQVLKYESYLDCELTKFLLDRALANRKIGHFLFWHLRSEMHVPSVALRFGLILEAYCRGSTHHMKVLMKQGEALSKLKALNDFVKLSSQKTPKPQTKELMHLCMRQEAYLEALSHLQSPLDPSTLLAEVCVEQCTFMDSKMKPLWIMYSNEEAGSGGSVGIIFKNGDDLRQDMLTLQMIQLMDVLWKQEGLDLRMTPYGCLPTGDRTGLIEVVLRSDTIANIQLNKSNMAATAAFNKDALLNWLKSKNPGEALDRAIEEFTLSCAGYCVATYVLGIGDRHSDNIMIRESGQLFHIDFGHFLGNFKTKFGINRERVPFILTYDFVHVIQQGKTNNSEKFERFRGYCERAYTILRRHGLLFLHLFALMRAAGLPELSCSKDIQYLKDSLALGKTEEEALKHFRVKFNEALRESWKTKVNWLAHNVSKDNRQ
PI3Kδ, sequence (P27986 whole entry partner): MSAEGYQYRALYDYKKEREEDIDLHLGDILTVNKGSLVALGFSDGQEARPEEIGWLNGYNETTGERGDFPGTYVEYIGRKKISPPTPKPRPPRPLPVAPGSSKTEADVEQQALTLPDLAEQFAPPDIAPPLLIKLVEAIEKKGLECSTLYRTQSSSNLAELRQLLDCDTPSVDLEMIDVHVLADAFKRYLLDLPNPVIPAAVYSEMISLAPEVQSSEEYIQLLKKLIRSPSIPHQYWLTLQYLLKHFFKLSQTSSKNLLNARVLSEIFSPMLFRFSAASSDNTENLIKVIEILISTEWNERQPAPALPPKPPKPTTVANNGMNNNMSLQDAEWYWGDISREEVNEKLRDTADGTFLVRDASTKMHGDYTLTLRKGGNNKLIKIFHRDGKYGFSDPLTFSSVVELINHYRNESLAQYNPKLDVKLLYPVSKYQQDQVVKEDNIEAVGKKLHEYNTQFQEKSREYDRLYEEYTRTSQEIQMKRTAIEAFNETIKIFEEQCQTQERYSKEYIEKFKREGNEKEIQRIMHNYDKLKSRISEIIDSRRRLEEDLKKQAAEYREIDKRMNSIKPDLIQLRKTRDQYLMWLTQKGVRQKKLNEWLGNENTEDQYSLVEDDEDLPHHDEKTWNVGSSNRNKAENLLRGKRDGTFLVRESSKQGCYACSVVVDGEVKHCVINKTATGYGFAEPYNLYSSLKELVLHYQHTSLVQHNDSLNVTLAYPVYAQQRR

Row | Compound | IC50 [µM]
1 | Cc1nn(C(C)c2cc(Cl)c(F)c3c2OCCN(C2CN(C(=O)N(C)C)C2)C3)c2ncnc(N)c12 (stereo not shown) [Example 73, 3-[9-[1-(4-amino-3-methyl-1H-pyrazolo[3,4-d]pyrimidin-1-yl)ethyl]-7-chloro-6-fluoro-2,3-dihydro-1,4-benzoxazepin-4(5H)-yl]-N,N-dimethylazetidine-1-carboxamide] | ≤ 0.1
2 | Cc1nn(C(C)c2cc(Cl)c(F)c3c2OCCN(C2CN(S(=O)(=O)N(C)C)C2)C3)c2ncnc(N)c12 (stereo not shown) [Example 74, 3-[9-[1-(4-amino-3-methyl-1H-pyrazolo[3,4-d]pyrimidin-1-yl)ethyl]-7-chloro-6-fluoro-2,3-dihydro-1,4-benzoxazepin-4(5H)-yl]-N,N-dimethylazetidine-1-sulfonamide] | ≤ 0.1
3 | Cc1nn(C(C)c2cc(Cl)c(F)c3c2OC(C)CN(C2CN(S(C)(=O)=O)C2)C3)c2ncnc(N)c12 (stereo not shown) [Example 75, 1-(1-{7-chloro-6-fluoro-2-methyl-4-[1-(methylsulfonyl)azetidin-3-yl]-2,3,4,5-tetrahydro-1,4-benzoxazepin-9-yl}ethyl)-3-methyl-1H-pyrazolo[3,4-d]pyrimidin-4-amine] | ≤ 0.1
4 | CCC(=O)N1CC(N2Cc3c(F)c(Cl)cc(C(C)n4nc(C)c5c(N)ncnc54)c3OC(C)C2)C1 (stereo not shown) [Example 76, 1-{1-[7-chloro-6-fluoro-2-methyl-4-(1-propionylazetidin-3-yl)-2,3,4,5-tetrahydro-1,4-benzoxazepin-9-yl]ethyl}-3-methyl-1H-pyrazolo[3,4-d]pyrimidin-4-amine] | ≤ 0.1
5 | Cc1nn([C@@H](C)c2cc(Cl)c(F)c3c2O[C@@H](C)CN(C2CN(C[C@H](C)O)C2)C3)c2ncnc(N)c12 [Example 85, (2S)-1-{3-[(2S)-9-[(1S)-1-(4-amino-3-methyl-1H-pyrazolo[3,4-d]pyrimidin-l-yl)ethyl]-7-chloro-6-fluoro-2-methyl-2,3-dihydro-1,4-benzoxazepin-4(5H)-yl]azetidin-1-yl}propan-2-ol] | ≤ 0.1
6 | Cc1nn([C@@H](C)c2cc(Cl)c(F)c3c2O[C@@H](C)CN(C2CN(C[C@@H](C)O)C2)C3)c2ncnc(N)c12 [Example 86, (2R)-1-{3-[(2S)-9-[(1S)-1-(4-amino-3-methyl-1H-pyrazolo[3,4-d]pyrimidin-1-yl)ethyl]-7-chloro-6-fluoro-2-methyl-2,3-dihydro-1,4-benzoxazepin-4(5H)-yl]azetidin-1-yl}propan-2-ol] | ≤ 0.1
7 | CCC(=O)N1CC(N2CCOc3c(C(C)n4nc(C)c5c(N)ncnc54)cc(Cl)c(C#N)c3C2)C1 (stereo not shown) [Example 89, 9-[1-(4-amino-3-methyl-1H-pyrazolo[3,4-d]pyrimidin-1-yl)ethyl]-7-chloro-4-(1-propionylazetidin-3-yl)-2,3,4,5-tetrahydro-1,4-benzoxazepine-6-carbonitrile] | ≤ 0.1
8 | Cc1nn(C(C)c2cc(Cl)c(C#N)c3c2OCCN(C2CN(S(C)(=O)=O)C2)C3)c2ncnc(N)c12 (stereo not shown) [Example 90, 9-[1-(4-amino-3-methyl-1H-pyrazolo[3,4-d]pyrimidin-1-yl)ethyl]-7-chloro-4-[1-(methylsulfonyl)azetidin-3-yl]-2,3,4,5-tetrahydro-1,4-benzoxazepine-6-carbonitrile] | ≤ 0.1
9 | Cc1nn(C(C)c2cc(Cl)c(C#N)c3c2OCCN(C2CN(C(=O)NC(C)C)C2)C3)c2ncnc(N)c12 (stereo not shown) [Example 91, 3-[9-[1-(4-amino-3-methyl-1H-pyrazolo[3,4-d]pyrimidin-1-yl)ethyl]-7-chloro-6-cyano-2,3-dihydro-1,4-benzoxazepin-4(5H)-yl]-N-isopropylazetidine-1-carboxamide] | ≤ 0.1
10 | CCOC(=O)N1CC(N2CCOc3c(C(C)n4nc(C)c5c(N)ncnc54)cc(Cl)c(C#N)c3C2)C1 (stereo not shown) [Example 92, ethyl 3-[9-[1-(4-amino-3-methyl-1H-pyrazolo[3,4-d]pyrimidin-1-yl)ethyl]-7-chloro-6-cyano-2,3-dihydro-1,4-benzoxazepin-4(5H)-yl]azetidine-1-carboxylate] | ≤ 0.1

The remaining lines, values ahead:

Row | IC50 [µM] | Compound
11 | ≤ 0.1 | CNC(=O)C1CC(N2Cc3c(C#N)c(Cl)cc(C(C)n4nc(C)c5c(N)ncnc54)c3OC(C)C2)C1 (single isomer, unassigned) [Example 114, 3-[9-[1-(4-amino-3-methyl-1H-pyrazolo[3,4-d]pyrimidin-1-yl)ethyl]-7-chloro-6-cyano-2-methyl-2,3-dihydro-1,4-benzoxazepin-4(5H)-yl]-N-methylcyclobutanecarboxamide]
12 | ≤ 0.1 | CNC(=O)C1CC(N2Cc3c(C#N)c(Cl)cc(C(C)n4nc(C)c5c(N)ncnc54)c3OC(C)C2)C1 (single isomer, unassigned) [Example 115, 3-[9-[1-(4-amino-3-methyl-1H-pyrazolo[3,4-d]pyrimidin-1-yl)ethyl]-7-chloro-6-cyano-2-methyl-2,3-dihydro-1,4-benzoxazepin-4(5H)-yl]-N-methylcyclobutanecarboxamide]
13 | ≤ 0.1 | CC(=O)N1CC(N2CCOc3c(C(C)n4nc(C)c5c(N)ncnc54)cc(Cl)c(F)c3C2)C1 (stereo not shown) [Example 34, 1-{1-[4-(1-Acetylazetidin-3-yl)-7-chloro-6-fluoro-2,3,4,5-tetrahydro-1,4-benzoxazepin-9-yl]ethyl}-3-methyl-1H-pyrazolo[3,4-d]pyrimidin-4-amine]
14 | ≤ 0.1 | Cc1nn(C(C)c2cc(Cl)c(F)c3c2O[C@@H](C)CN(C2CC(C(=O)O)C2)C3)c2ncnc(N)c12 (stereo partly shown) [Example 41, 3-[9-[1-(4-Amino-3-methyl-1H-pyrazolo[3,4-d]pyrimidin-1-yl)ethyl]-7-chloro-6-fluoro-2-methyl-2,3-dihydro-1,4-benzoxazepin-4(5H)-yl]cyclobutanecarboxylic acid trifluoroacetate]
15 | ≤ 0.1 | Cc1nn(C(C)c2cc(Cl)c(F)c3c2O[C@@H](C)CN(C2CC(C(N)=O)C2)C3)c2ncnc(N)c12 (stereo partly shown) [Example 43]
16 | ≤ 0.1 | CC(=O)N1CC(N2CCOc3c(C(C)n4nc(C)c5c(N)ncnc54)cc(Cl)c(C#N)c3C2)C1 (stereo not shown) [Example 46, 4-(1-Acetylazetidin-3-yl)-9-[1-(4-amino-3-methyl-1H-pyrazolo[3,4-d]pyrimidin-1-yl)ethyl]-7-chloro-2,3,4,5-tetrahydro-1,4-benzoxazepine-6-carbonitrile]
17 | ≤ 0.1 | Cc1nn(C(C)c2cc(Cl)c(C#N)c3c2OCCN(C2CN(CCO)C2)C3)c2ncnc(N)c12 (stereo not shown) [Example 47, 9-[1-(4-amino-3-methyl-1H-pyrazolo[3,4-d]pyrimidin-1-yl)ethyl]-7-chloro-4-[1-(2-hydroxyethyl)azetidin-3-yl]-2,3,4,5-tetrahydro-1,4-benzoxazepine-6-carbonitrile]
18 | ≤ 0.1 | Cc1nn(C(C)c2cc(Cl)c(C#N)c3c2O[C@@H](C)CN(C2CN(CCO)C2)C3)c2ncnc(N)c12 (stereo partly drawn) [Example 56, (2S)-9-[1-(4-Amino-3-methyl-1H-pyrazolo[3,4-d]pyrimidin-1-yl)ethyl]-7-chloro-4-[1-(2-hydroxyethyl)azetidin-3-yl]-2-methyl-2,3,4,5-tetrahydro-1,4-benzoxazepine-6-carbonitrile]
19 | ≤ 0.1 | Cc1nn(C(C)c2cc(Cl)c(C#N)c3c2OCCN(CCO)C3)c2ncnc(N)c12 (stereo not shown) [Example 58, 9-[1-(4-Amino-3-methyl-1H-pyrazolo[3,4-d]pyrimidin-1-yl)ethyl]-7-chloro-4-(2-hydroxyethyl)-2,3,4,5-tetrahydro-1,4-benzoxazepine-6-carbonitrile]
